The results in this text go back to patent US20220204495A1, “INHIBITING TRABID” (Valo Health, Inc., priority 2019, published 2022).

pIC50: −log10 of the molar value.

The assay addresses T1, TRABID(245-697) (Homo sapiens, UniProt Q9UGI0).
T1 construct: 10 nM TRABID(245-697) and 25 nM Ub-Rh110MP (UbiQ, UbiQ-126) final concentrations
T1 sequence (Q9UGI0 245-697): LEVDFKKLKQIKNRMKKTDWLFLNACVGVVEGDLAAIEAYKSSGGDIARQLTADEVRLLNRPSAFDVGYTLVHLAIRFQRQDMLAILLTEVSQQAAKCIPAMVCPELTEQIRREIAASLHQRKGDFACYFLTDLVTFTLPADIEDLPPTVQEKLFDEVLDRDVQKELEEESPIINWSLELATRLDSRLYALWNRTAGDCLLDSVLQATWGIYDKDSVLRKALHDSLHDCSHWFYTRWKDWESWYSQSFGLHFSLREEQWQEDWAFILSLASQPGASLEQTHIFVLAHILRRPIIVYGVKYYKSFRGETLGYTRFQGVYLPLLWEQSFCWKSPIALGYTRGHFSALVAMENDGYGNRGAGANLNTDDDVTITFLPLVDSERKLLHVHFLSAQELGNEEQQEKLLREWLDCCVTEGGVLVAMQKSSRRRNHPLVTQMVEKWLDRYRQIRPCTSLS
Kind of assay: TRABID inhibition biochemical assay (Ub-Rh110MP fluorescence). The conditions noted are these: 10 nM TRABID(245-697), 25 nM Ub-Rh110MP, 30 minutes preincubation with compound, 10-point 3-fold series 26.6 μM to 1.35 nM. How it is done: TRABID enzymatic assays were performed in a final volume of 6 μL in buffer containing 20 mM Tris-HCl pH 8.0, (Corning 46-031-CM), and 1 mM GSH (Sigma, G4251), 0.03% BGG (Sigma, G7516), and 0.01% Triton X-100 (Sigma, 93443). Test compounds were serially diluted in DMSO (Sigma, G7516) to obtain 10-point, 3-fold series. Nanoliter quantities were pre-dispensed into 1536 assay plates (Corning, 9110BC) for the concentration response range, 26.6 μM to 1.35 nM. 3 μL of 2× enzyme was added to the assay plates, preincubated with compound for 30 minutes and then 3 μL of 2× substrate was added to initiate the reaction (10 nM TRABID(245-697) and 25 nM Ub-Rh110MP (UbiQ, UbiQ-126) final concentrations). Enzyme and substrate concentrations and incubation times were optimized for the maximal signal-to-background while maintaining linear initial velocity conditions at a fixed substrate concentration below Km.
Fluorescence signal was measured on an EnVision Plate Reader (PerkinElmer) equipped with 485 nm excitation filter and 535 nm emission filters.
Rates were calculated by: rate=((final FLU−initial FLU)/600 seconds) where final FLU=fluorescence at time 10 minutes, initial FLU=fluorescence at time 0 minutes and 600=duration of reaction in seconds.
Data were reported as percent inhibition compared with control wells based on the following equation: % inh=[…] where rate=measured rate of fluorescence generated during assay, AveLow=average rate of no enzyme control (n=32), and AveHigh=average rate of DMSO control (n=32).
IC50 values were determined by curve fitting of the standard 4 parameter logistic fitting algorithm included in the Activity Base software package (IDBS) using XE Designer equation Model 205. Data were fitted using the Levenburg Marquardt algorithm.
For orientation: pIC50 means the IC50 on a negative log10 scale, so that one unit is a factor of ten. As to `COc1cccc(-c2ncc(NC(=O)[C@@H](C)CCNC#N)s2)c1` [Compound 6, (2S)-4-(cyanoamino)-N-[2-(3-methoxyphenyl)-1,3-thiazol-5-yl]-2-methylbutanamide], the pIC50 is 6.02.
Under `COc1cccc(-c2ncc(C(=O)NCCCNC#N)s2)c1` [Compound 5, N-[3-(cyanoamino)propyl]-2-(3-methoxyphenyl)-1,3-thiazole-5-carboxamide] stands 6.06; under `C[C@@H](CNC#N)C(=O)Nc1cc(-c2ccc(-c3cnn(C)c3)cc2)no1` [Compound 19, (2S)-3-(cyanoamino)-2-methyl-N-[3-[4-(1-methylpyrazol-4-yl)phenyl]-1,2-oxazol-5-yl]propanamide], 5.59; under `COc1ccccc1-c1nc(C(=O)N2CC[C@H](CNC#N)C2)cs1` [Compound 14, cyano([[(3R)-1-[2-(2-methoxyphenyl)-1,3-thiazole-4-carbonyl]pyrrolidin-3-yl]methyl])amine], 5.89.
Under `COc1cccc(-c2ncc(NC(=O)[C@H](C)CNC#N)s2)c1` [Compound 43, (2R)-3-(cyanoamino)-N-[2-(3-methoxyphenyl)-1,3-thiazol-5-yl]-2-methylpropanamide] stands 5.10.
With `N#CNC[C@@H]1CCN(C(=O)c2csc(-c3ccccc3Oc3ccccc3)n2)C1` [Compound 1, cyano([[(3S)-1-[2-(2-phenoxyphenyl)-1,3-thiazole-4-carbonyl]pyrrolidin-3-yl]methyl])amine] the figure was 6.85.
Turning to `COc1cccc(-c2cc(C(=O)N3CC[C@@]4(CC4NC#N)C3)on2)c1` (some centres unmarked) [Compound 38], the negative-log IC50 (pIC50) is 6.28.
As to `CN(C(=O)c1cnc(-c2ccccc2)s1)[C@H]1C[C@H](CNC#N)C1` (single isomer, unassigned) [Compound 20, N-methyl-2-phenyl-N-[(trans)-3-[(cyanoamino)methyl]cyclobutyl]-1,3-thiazole-5-carboxamide], the pIC50 is 5.53.
With `N#CNC1C[C@@]12CCN(C(=O)c1csc(-c3ccc(Cl)cc3Cl)n1)C2` (some centres unmarked) [Compound 7] the figure was 5.98; with `Cn1cc(-c2ccc(-c3cc(NC(=O)CCNC#N)on3)cc2)cn1` [Compound 15, 3-(cyanoamino)-N-[3-[4-(1-methylpyrazol-4-yl)phenyl]-1,2-oxazol-5-yl]propanamide], 5.86; with `N#CN[C@H]1CC[C@@H](NC(=O)c2cccc(Oc3ccccc3)c2)C1` [Compound 40], 5.14.
Under `N#CNC[C@H]1C[C@H](NC(=O)c2cnc(-c3ccccc3)s2)C1` [Compound 16, 2-phenyl-N-[(trans)-3-[(cyanoamino)methyl]cyclobutyl]-1,3-thiazole-5-carboxamide] stands 5.80; under `N#CNC[C@H]1CCCN1C(=O)c1csc(-c2ccc(Cl)cc2Cl)n1` [Compound 39], 5.18; under `N#CNCC1CN(C(=O)c2csc(-c3ccc(Cl)cc3Cl)n2)C1` [Compound 29], 5.29.
Under `C[C@H](CNC#N)C(=O)Nc1cc(-c2ccc(-c3cnn(C)c3)cc2)no1` [Compound 18, (2R)-3-(cyanoamino)-2-methyl-N-[3-[4-(1-methylpyrazol-4-yl)phenyl]-1,2-oxazol-5-yl]propanamide] stands 5.78; under `N#CNC[C@@H]1CCCN(C(=O)c2csc(-c3ccc(Cl)cc3Cl)n2)C1` [Compound 32], 5.28; under `N#CNCC12CC1CN(C(=O)c1csc(-c3ccc(Cl)cc3Cl)n1)C2` (centres unmarked) [Compound 17], 5.79.
In the case of `COc1cccc(-c2ncc(NC(=O)CCCNC#N)s2)c1` [Compound 3, 4-(cyanoamino)-N-[2-(3-methoxyphenyl)-1,3-thiazol-5-yl]butanamide], the pIC50 was 6.13.
Under `Cn1cc(-c2ccc(-c3cc(NC(=O)CCCNC#N)on3)cc2)cn1` [Compound 8, 4-(cyanoamino)-N-[3-[4-(1-methylpyrazol-4-yl)phenyl]-1,2-oxazol-5-yl]butanamide] stands 5.98.
Under `N#CNCCCC(=O)Nc1cnc(-c2ccccc2Oc2ccccc2)s1` [Compound 9, 4-(cyanoamino)-N-[2-(2-phenoxyphenyl)-1,3-thiazol-5-yl]butanamide] stands 5.95; under `N#CNC[C@H]1CN(C(=O)c2csc(-c3ccc(Cl)cc3Cl)n2)CCO1` [Compound 24, Cyano({[(2S)-4-[2-(2,4-dichlorophenyl)-1,3-thiazole-4-carbonyl]morpholin-2-yl]methyl})amine], 5.40; under `Cn1cc(-c2ccc(-c3cc(C(=O)N4CCC5(CC(NC#N)C5)C4)on3)cc2)cn1` (centres unmarked) [Compound 13, [(6-[3-[4-(1-methyl-1H-pyrazol-4-yl)phenyl]-1,2-oxazole-5-carbonyl]-6-azaspiro[3.4]octan-2-yl)amino]formonitrile], 5.90.
With `N#CN[C@H]1[C@@H]2CN(C(=O)c3csc(-c4ccc(Cl)cc4Cl)n3)C[C@@H]21` [Compound 26] the figure was 5.34; with `N#CNC[C@H]1CCN(C(=O)c2csc(-c3ccc(Cl)cc3Cl)n2)C1` [Compound 11], 5.94; with `COc1ccc(-c2cc(C(=O)N(C)CCCNC#N)on2)cc1` [Compound 41], 5.11.
Take `CN(CCCNC#N)C(=O)c1nc(-c2ccccc2)cs1` [Compound 48]: the pIC50 was 5.06.
With `COc1ccccc1-c1nc(C(=O)N2CC[C@@H](CNC#N)C2)cs1` [Compound 12, cyano([[(3S)-1-[2-(2-methoxyphenyl)-1,3-thiazole-4-carbonyl]pyrrolidin-3-yl]methyl])amine] the figure was 5.90; with `COc1ccc(-c2cc(C(=O)N3CC[C@@]4(CC4NC#N)C3)on2)cc1` (some centres unmarked) [Compound 34], 5.25.
Under `COc1ccccc1-c1ncc(NC(=O)CCCNC#N)s1` [Compound 10, 4-(cyanoamino)-N-[2-(2-methoxyphenyl)-1,3-thiazol-5-yl]butanamide] stands 5.94; under `COc1ccc(-c2cc(C(=O)N3CC4CC4(CNC#N)C3)on2)cc1` (centres unmarked) [Compound 31], 5.28.
Regarding `COc1cccc(-c2ncc(NC(=O)[C@H](C)CCNC#N)s2)c1` [Compound 4, (2R)-4-(cyanoamino)-N-[2-(3-methoxyphenyl)-1,3-thiazol-5-yl]-2-methylbutanamide], the negative-log IC50 (pIC50) is 6.07.
Under `N#CNC[C@H]1CCN(C(=O)c2csc(-c3ccccc3Oc3ccccc3)n2)C1` [Compound 2, cyano([[(3R)-1-[2-(2-phenoxyphenyl)-1,3-thiazole-4-carbonyl]pyrrolidin-3-yl]methyl])amine] stands 6.36; under `N#CNC[C@H]1CCN(C(=O)c2nc(-c3ccccc3)cs2)C1` [Compound 46], 5.07.
Consider `N#CN[C@H]1C[C@]2(CCN(C(=O)c3cc(-c4ccccn4)no3)C2)C1` (single isomer, unassigned) [Compound 45, {[(2r,4s)-6-[3-(pyridin-2-yl)-1,2-oxazole-5-carbonyl]-6-azaspiro[3.4]octan-2-yl]amino}formonitrile], for which the pIC50 was 5.09.
Under `N#CNC1CC2(CCN(C(=O)c3csc(-c4ccc(Cl)cc4Cl)n3)CC2)C1` [Compound 44] stands 5.10; under `N#CN[C@H]1[C@@H]2CN(C(=O)c3nc(-c4ccccc4)cs3)C[C@@H]21` [Compound 25], 5.36; under `N#CNC1C[C@@]12CCN(C(=O)c1nc(-c3ccccc3)cs1)C2` (some centres unmarked) [Compound 36], 5.19.
With `COc1cccc(-c2cc(C(=O)N3CC4CC4(CNC#N)C3)on2)c1` (centres unmarked) [Compound 22] the figure was 5.47.
